Experimental data as given in ChEMBL document CHEMBL6134788, “Development of naphthalimide hydrazide derivatives as potent antibacterial agents against carbapenem-resistant A. baumannii” (RSC Med Chem, 2024).
Values after ≈ are worked out from the molar mass of the structure shown. Positions of bridges follow the written chain, without caps; N, C: chain ends. Non-standard residues stand in square brackets, D forms with d. Residues, ends and D or L forms follow the SMILES beside them. *: point of attachment. X1 = CC[C@H](C)CCCCC(=O)*; Dab = NCC[C@H](N)C(=O)O

Experiments:
[1] = test system: Pseudomonas aeruginosa; experiment: Antibacterial activity against Pseudomonas aeruginosa ATCC 27853 assessed as inhibition of bacterial growth incubated for 16 to 18 hrs by CLSI protocol based method; format: functional; conditions: time 16-18 hrs, read-out: MIC100
[2] = test system: Acinetobacter baumannii; experiment: Antibacterial activity against multi-drug resistant Acinetobacter baumannii WL-487 assessed as inhibition of bacterial growth incubated for 16 to 18 hrs by CLSI protocol based method; format: functional; conditions: time 16-18 hrs, read-out: MIC100
[3] = test system: Acinetobacter baumannii; experiment: Antibacterial activity against multi-drug resistant Acinetobacter baumannii clinical isolate 6 assessed as inhibition of bacterial growth incubated for 16 to 18 hrs by CLSI protocol based method; format: functional; conditions: time 16-18 hrs, read-out: MIC100
[4] = test system: Acinetobacter baumannii; experiment: Antibacterial activity against multi-drug resistant Acinetobacter baumannii clinical isolate 8 assessed as inhibition of bacterial growth incubated for 16 to 18 hrs by CLSI protocol based method; format: functional; conditions: time 16-18 hrs, read-out: MIC100
[5] = test system: Klebsiella pneumoniae; experiment: Antibacterial activity against Klebsiella pneumoniae BAA 1705 assessed as inhibition of bacterial growth incubated for 16 to 18 hrs by CLSI protocol based method; format: functional; conditions: time 16-18 hrs, read-out: MIC100
[6] = test system: Acinetobacter baumannii; experiment: Antibacterial activity against multi-drug resistant Acinetobacter baumannii clinical isolate 2 assessed as inhibition of bacterial growth incubated for 16 to 18 hrs by CLSI protocol based method; format: functional; conditions: time 16-18 hrs, read-out: MIC100
[7] = test system: Acinetobacter baumannii; experiment: Antibacterial activity against multi-drug resistant Acinetobacter baumannii Naval-18 assessed as inhibition of bacterial growth incubated for 16 to 18 hrs by CLSI protocol based method; format: functional; conditions: time 16-18 hrs, read-out: MIC100
[8] = test system: Acinetobacter baumannii; experiment: Antibacterial activity against multi-drug resistant Acinetobacter baumannii 5-032 assessed as inhibition of bacterial growth incubated for 16 to 18 hrs by CLSI protocol based method; format: functional; conditions: time 16-18 hrs, read-out: MIC100
[9] = test system: Acinetobacter baumannii; experiment: Antibacterial activity against carbapenem-resistant Acinetobacter baumannii BAA 1605 assessed as inhibition of bacterial growth incubated for 16 to 18 hrs by CLSI protocol based method; format: functional; conditions: time 16-18 hrs, read-out: MIC100
[10] = test system: Acinetobacter baumannii; experiment: Antibacterial activity against multi-drug resistant Acinetobacter baumannii Naval-17 assessed as inhibition of bacterial growth incubated for 16 to 18 hrs by CLSI protocol based method; format: functional; conditions: time 16-18 hrs, read-out: MIC100
[11] = test system: Escherichia coli; experiment: Antibacterial activity against Escherichia coli ATCC 25922 assessed as inhibition of bacterial growth incubated for 16 to 18 hrs by CLSI protocol based method; format: functional; conditions: time 16-18 hrs, read-out: MIC100
[12] = test system: Acinetobacter baumannii; experiment: Antibacterial activity against multi-drug resistant Acinetobacter baumannii H72721 assessed as inhibition of bacterial growth incubated for 16 to 18 hrs by CLSI protocol based method; format: functional; conditions: time 16-18 hrs, read-out: MIC100
[13] = test system: Acinetobacter baumannii; experiment: Antibacterial activity against multi-drug resistant Acinetobacter baumannii 5-109 assessed as inhibition of bacterial growth incubated for 16 to 18 hrs by CLSI protocol based method; format: functional; conditions: time 16-18 hrs, read-out: MIC100
[14] = test system: Acinetobacter baumannii; experiment: Antibacterial activity against multi-drug resistant Acinetobacter baumannii clinical isolate 10 assessed as inhibition of bacterial growth incubated for 16 to 18 hrs by CLSI protocol based method; format: functional; conditions: time 16-18 hrs, read-out: MIC100
[15] = test system: Acinetobacter baumannii; experiment: Antibacterial activity against multi-drug resistant Acinetobacter baumannii clinical isolate 11 assessed as inhibition of bacterial growth incubated for 16 to 18 hrs by CLSI protocol based method; format: functional; conditions: time 16-18 hrs, read-out: MIC100
[16] = test system: Acinetobacter baumannii; experiment: Antibacterial activity against multi-drug resistant Acinetobacter baumannii 5-189 assessed as inhibition of bacterial growth incubated for 16 to 18 hrs by CLSI protocol based method; format: functional; conditions: time 16-18 hrs, read-out: MIC100
[17] = test system: Acinetobacter baumannii; experiment: Antibacterial activity against multi-drug resistant Acinetobacter baumannii Naval-81 assessed as inhibition of bacterial growth incubated for 16 to 18 hrs by CLSI protocol based method; format: functional; conditions: time 16-18 hrs, read-out: MIC100
[18] = test system: Acinetobacter baumannii; experiment: Antibacterial activity against multi-drug resistant Acinetobacter baumannii clinical isolate 5 assessed as inhibition of bacterial growth incubated for 16 to 18 hrs by CLSI protocol based method; format: functional; conditions: time 16-18 hrs, read-out: MIC100
[19] = test system: Acinetobacter baumannii; experiment: Antibacterial activity against multi-drug resistant Acinetobacter baumannii clinical isolate 1 assessed as inhibition of bacterial growth incubated for 16 to 18 hrs by CLSI protocol based method; format: functional; conditions: time 16-18 hrs, read-out: MIC100
[20] = test system: Acinetobacter baumannii; experiment: Antibacterial activity against multi-drug resistant Acinetobacter baumannii WL-136 assessed as inhibition of bacterial growth incubated for 16 to 18 hrs by CLSI protocol based method; format: functional; conditions: time 16-18 hrs, read-out: MIC100
[21] = test system: Acinetobacter baumannii; experiment: Antibacterial activity against multi-drug resistant Acinetobacter baumannii clinical isolate 9 assessed as inhibition of bacterial growth incubated for 16 to 18 hrs by CLSI protocol based method; format: functional; conditions: time 16-18 hrs, read-out: MIC100
[22] = test system: Staphylococcus aureus; experiment: Antibacterial activity against Staphylococcus aureus ATCC 29213 assessed as inhibition of bacterial growth incubated for 16 to 18 hrs by CLSI protocol based method; format: functional; conditions: time 16-18 hrs, read-out: MIC100
[23] = test system: Acinetobacter baumannii; experiment: Antibacterial activity against multi-drug resistant Acinetobacter baumannii clinical isolate 12 assessed as inhibition of bacterial growth incubated for 16 to 18 hrs by CLSI protocol based method; format: functional; conditions: time 16-18 hrs, read-out: MIC100
[24] = test system: Acinetobacter baumannii; experiment: Antibacterial activity against multi-drug resistant Acinetobacter baumannii clinical isolate 3 assessed as inhibition of bacterial growth incubated for 16 to 18 hrs by CLSI protocol based method; format: functional; conditions: time 16-18 hrs, read-out: MIC100
[25] = test system: Acinetobacter baumannii; experiment: Antibacterial activity against Acinetobacter baumannii ATCC 17978 assessed as inhibition of bacterial growth incubated for 16 to 18 hrs by CLSI protocol based method; format: functional; conditions: time 16-18 hrs, read-out: MIC100
[26] = Selectivity index, ratio of CC50 for cytotoxicity against African green monkey VERO cells to MIC for antibacterial activity against carbapenem-resistant Acinetobacter baumannii BAA 1605 assessed as inhibition of bacterial growth; format: toxicity, cell-based; conditions: read-out: Selectivity Index
[27] = test system: Acinetobacter baumannii; experiment: Antibacterial activity against multi-drug resistant Acinetobacter baumannii clinical isolate 4 assessed as inhibition of bacterial growth incubated for 16 to 18 hrs by CLSI protocol based method; format: functional; conditions: time 16-18 hrs, read-out: MIC100
[28] = Cytotoxicity against African green monkey Vero cells assessed as reduction in cell viability incubated for 72 hrs by MTT assay; format: toxicity, cell-based; conditions: chlorocebus sabaeus
[29] = test system: Acinetobacter baumannii; experiment: Antibacterial activity against multi-drug resistant Acinetobacter baumannii 5-143 assessed as inhibition of bacterial growth incubated for 16 to 18 hrs by CLSI protocol based method; format: functional; conditions: time 16-18 hrs, read-out: MIC100
[30] = test system: Acinetobacter baumannii; experiment: Antibacterial activity against multi-drug resistant Acinetobacter baumannii NR-17777 assessed as inhibition of bacterial growth incubated for 16 to 18 hrs by CLSI protocol based method; format: functional; conditions: time 16-18 hrs, read-out: MIC100
[31] = test system: Acinetobacter baumannii; experiment: Antibacterial activity against multi-drug resistant Acinetobacter baumannii BC-5 assessed as inhibition of bacterial growth incubated for 16 to 18 hrs by CLSI protocol based method; format: functional; conditions: time 16-18 hrs, read-out: MIC100
[32] = test system: Acinetobacter baumannii; experiment: Antibacterial activity against multi-drug resistant Acinetobacter baumannii clinical isolate 7 assessed as inhibition of bacterial growth incubated for 16 to 18 hrs by CLSI protocol based method; format: functional; conditions: time 16-18 hrs, read-out: MIC100

| Compound | MIC [2] [µg/mL] | MIC [3] [µg/mL] | MIC [4] [µg/mL] | MIC [6] [µg/mL] | MIC [7] [µg/mL] | MIC [8] [µg/mL] | MIC [9] [µg/mL] | MIC [10] [µg/mL] | MIC [12] [µg/mL] | MIC [13] [µg/mL] | MIC [14] [µg/mL] | MIC [15] [µg/mL] | MIC [16] [µg/mL] | MIC [17] [µg/mL] | MIC [18] [µg/mL] | MIC [19] [µg/mL] | MIC [20] [µg/mL] | MIC [21] [µg/mL] | MIC [23] [µg/mL] | MIC [24] [µg/mL] | other results |
| --- | --- | --- | --- | --- | --- | --- | --- | --- | --- | --- | --- | --- | --- | --- | --- | --- | --- | --- | --- | --- | --- |
| O=C(CCN1C(=O)c2cccc3cccc(c23)C1=O)NNc1ccc(F)cc1 | 1 (≈ 2.65 µM) | 4 (≈ 10.6 µM) | 2 (≈ 5.3 µM) | 2 (≈ 5.3 µM) | 2 (≈ 5.3 µM) | 4 (≈ 10.6 µM) | 1 (≈ 2.65 µM) | 2 (≈ 5.3 µM) | 2 (≈ 5.3 µM) | 4 (≈ 10.6 µM) | 2 (≈ 5.3 µM) | 2 (≈ 5.3 µM) | 4 (≈ 10.6 µM) | 2 (≈ 5.3 µM) | 4 (≈ 10.6 µM) | 2 (≈ 5.3 µM) | 2 (≈ 5.3 µM) | 2 (≈ 5.3 µM) | 2 (≈ 5.3 µM) | 0.5 (≈ 1.32 µM) | MIC [1]: > 64 µg/mL; MIC [5]: > 64 µg/mL; MIC [11]: > 64 µg/mL; MIC [22]: > 64 µg/mL; MIC [25]: 1 µg/mL (≈ 2.65 µM); selectivity ratio [26]: 80; MIC [27]: 2 µg/mL (≈ 5.3 µM); CC50 at 72 h [28]: 80 µg/mL (≈ 212 µM); MIC [29]: 2 µg/mL (≈ 5.3 µM); MIC [30]: 4 µg/mL (≈ 10.6 µM); MIC [31]: 1 µg/mL (≈ 2.65 µM); MIC [32]: 2 µg/mL (≈ 5.3 µM) |
| CC(C)CCCCC(=O)N[C@@H](CCN)C(=O)N[C@H](C(=O)N[C@@H](CCN)C(=O)N[C@H]1CCNC(=O)[C@H]([C@@H](C)O)NC(=O)[C@H](CCN)NC(=O)[C@H](CCN)NC(=O)[C@H](CC(C)C)NC(=O)[C@@H](Cc2ccccc2)NC(=O)[C@H](CCN)NC1=O)[C@@H](C)O.CC[C@H](C)CCCCC(=O)N[C@@H](CCN)C(=O)N[C@H](C(=O)N[C@@H](CCN)C(=O)N[C@H]1CCNC(=O)[C@H]([C@@H](C)O)NC(=O)[C@H](CCN)NC(=O)[C@H](CCN)NC(=O)[C@H](CC(C)C)NC(=O)[C@@H](Cc2ccccc2)NC(=O)[C@H](CCN)NC1=O)[C@@H](C)O (X1-[Dab]T[Dab][Dab][Dab][dF]L[Dab][Dab]T; lactam 4-C) | 0.5 | 0.25 | 0.5 | 0.25 | 0.25 | 0.125 | 0.25 | 0.25 | 0.25 | 0.25 | 0.25 | 0.25 | 0.25 | 0.125 | 0.25 | 0.25 | 0.25 | 0.5 | 0.25 | 0.25 | MIC [25]: 0.25 µg/mL; MIC [27]: 0.25 µg/mL; MIC [29]: 0.25 µg/mL; MIC [30]: 0.25 µg/mL; MIC [31]: 0.25 µg/mL; MIC [32]: 0.5 µg/mL |
| C[C@@H](O)[C@H]1C(=O)N2C(C(=O)O)=C(S[C@@H]3CN[C@H](C(=O)N(C)C)C3)[C@H](C)[C@H]12 [MEROPENEM] | 1 (≈ 2.61 µM) | > 64 | 64 (≈ 167 µM) | 32 (≈ 83.4 µM) | 64 (≈ 167 µM) | 4 (≈ 10.4 µM) | 16 (≈ 41.7 µM) | 4 (≈ 10.4 µM) | 32 (≈ 83.4 µM) | 4 (≈ 10.4 µM) | 16 (≈ 41.7 µM) | 64 (≈ 167 µM) | 2 (≈ 5.22 µM) | 4 (≈ 10.4 µM) | > 64 | 16 (≈ 41.7 µM) | 2 (≈ 5.22 µM) | > 64 | > 64 | 16 (≈ 41.7 µM) | MIC [25]: 0.5 µg/mL (≈ 1.3 µM); MIC [27]: 32 µg/mL (≈ 83.4 µM); MIC [29]: 8 µg/mL (≈ 20.9 µM); MIC [30]: 4 µg/mL (≈ 10.4 µM); MIC [31]: > 64 µg/mL; MIC [32]: 2 µg/mL (≈ 5.22 µM) |
